{"source": "patent US20200378993A1", "about": "“MEDICAL USES OF APOLIPOPROTEIN A AND ACTIVATORS THEREOF” (FUNDACIÓN IMDEA ALIMENTACIÓN, priority 2017, published 2020)", "type_in_all_cases": "cell-based, human", "key": {"[1]": {"test_system": "caveolin-1", "assay": "Caveolin-1 immunodetection by Western blot", "details": "RVX-208 (30 μM) versus DMSO carrier", "experimental": "FIG. 7. A) Proliferation curve in a viability assay carried out by means of XCELLigence technology. Growth of DLD1 cells treated with DMSO as the drug carrier and with Rvx-208 (30 μM). The significant differences existing in the slope of the graph, and therefore in the growth dynamics of the treated cells are shown in the right panel (****p-value<0.0001). B) Migration and invasion assays. The method followed was the same as the one described in FIG. 2 (*p-value=0.0407; ****p-value<0.0001). C) Expression levels of proteins E-cadherin and Vimentin in the presence and absence of Rvx-208. Analysis performed by means of quantitative PCR. The relative expression levels normalized with respect to the untreated control are shown. D) ABCA1, ApoA1, caveolin-1, and α-tubulin immunodetection by means of Western blot. α-tubulin acts as load control. The results of the cells treated with Rvx-208 (30 μM) or with the DMSO carrier are shown. E) Cholesterol flux in cells treated with Rvx-208. […]\nThe inventors were able to confirm said results based on the treatment of DLD1 cells expressing ABCA1 with RVX-208 under the conditions already described in detail in Example 3. […] The levels of caveolin-1, a protein whose increased levels have been associated with increases in cell migration and invasion, were also analyzed in this experiment."}, "[2]": {"test_system": "DLD1 cells overexpressing ABCA1", "assay": "Growth of Matrigel-embedded spheroids", "details": "treatment with Rvx-208; Matrigel-embedded spheroids from DLD1 cells overexpressing ABCA1", "description": "FIG. 8: A) Growth of spheroids derived from control cells and cells overexpressing ABCA1. The top panels correspond to the control treatment (carrier), the bottom panels correspond to treatment with Rvx-208. The growth curves represent the mean volume of a total of 30 spheroids per cell line. The inventors were able to confirm said results based on the treatment of DLD1 cells expressing ABCA1 with RVX-208 under the conditions already described in detail in Example 3. In this case, the DLD1 cells overexpressing ABCA1 were pre-treated for 72 hours before the start of the experiment with RVX-208 at a concentration of 30 μm and were subjected to a treatment with 15 μM of RVX-208 during the development of the experiments. […] The levels of caveolin-1, a protein whose increased levels have been associated with increases in cell migration and invasion, were also analyzed in this experiment."}, "[3]": {"test_system": "DLD1 cells", "assay": "Migration assay (Corning BioCoat Control plates)", "details": "RVX-208 30 μm 72 hours then 15 μM", "experimental": "(§1) Cell viability and proliferation assays were carried out by means of XCELLigence technology (ACEA Biosciences, Inc.) following the manufacturer's indications. Migration and invasion assays were carried out in Corning® BioCoat™ Control plates (#354578) and Corning® BioCoat™ Matrigel plates (#354480), respectively, following the manufacturer's indications. For the rescue assays, the cells were treated for 72 hours with 30 μM apabetalone (RVX-208; Biovision). Antibodies: ABCA1 (Ab18180, Abcam. 1:500); caveolin-1 (Ab2910, Abcam. 1:1000); α-tubulin (T9026, Sigma 1:1000). The DLD1 cells correspond to a human colorectal cancer-derived adherent epithelial cell line (ATCC® CCL-221™). The stable cell lines capable of overexpressing ABCA1 were obtained by means of transduction with genetically modified lentivirus.\n(§2) Following the same treatment regimen, the inventors carried out migration and invasion assays.\n(§3) The same assays were repeated by replacing ApoA1 with a treatment with RVX-208. In this case, DLD1 cells were pre-treated for 72 hours before the start of the experiment with RVX-208 at a concentration of 30 μm and were subjected to a treatment with 15 μM of RVX-208 during the development of the experiments."}, "[4]": {"test_system": "D1D1 cell lines expressing increased ApoA1 levels (D_ApoA1)", "assay": "Cell viability and proliferation (xCELLigence) with ShApoA1/scramble transfection", "details": "30 μM RVX-208, ApoA1 expression not inhibited (Scr+Rvx-208); D_ApoA1 cells", "experimental": "FIG. 9: A) Proliferation curve in a viability assay carried out by means of XCELLigence technology. Growth of DLD1 cells treated with DMSO as the drug carrier and with Rvx-208 (30 μM). Control cells (scramble, SCR) are shown in black. Cells transfected with anti-ApoA1 short hairpin are shown in gray. The significant differences existing in the values of the slope of the graphs on the left-hand side, and therefore in the growth dynamics of the treated cells, are shown in the right panels (*p-value=0.0471; **p-value=0.0067; ****p-value<0.0001). B) Invasion assays in cells with silenced ApoA1 expression. For the purpose of confirming that the effects of RVX-208 in cell phenotype recovery were due to the increase in ApoA-1 expression, the inventors inhibited the expression of said protein by means of transfection of a complementary small RNA, ShApoA1 (FIG. 9). Twenty-four hours after transfection with ShApoA1 expression vector, the inventors started treatment with 30 μM of RVX-208. Cell viability and proliferation in DLD1 cells (D_NoORF) and D1D1 cell lines expressing increased ApoA1 levels (D_ApoA1 ) were analyzed with the xCELLigence system."}, "[5]": {"test_system": "DLD1 cells", "assay": "Invasion assay (Corning BioCoat Matrigel plates)", "experimental": "as §1, §2, §3\nFor the purpose of confirming that the effects of RVX-208 in cell phenotype recovery were due to the increase in ApoA-1 expression, the inventors inhibited the expression of said protein by means of transfection of a complementary small RNA, ShApoA1 (FIG. 9). Twenty-four hours after transfection with ShApoA1 expression vector, the inventors started treatment with 30 μM of RVX-208. Cell viability and proliferation in DLD1 cells (D_NoORF) and D1D1 cell lines expressing increased ApoA1 levels (D_ApoA1 ) were analyzed with the xCELLigence system."}}}
{"smiles": "COc1cc(OC)c2c(=O)[nH]c(-c3cc(C)c(OCCO)c(C)c3)nc2c1", "note": "[RVX-208, 2-(4-(2-hydroxyethoxy)-3,5-dimethylphenyl)-5,7-dimethoxyquinazolin-4(3H)-one]", "values": [{"measurement": "caveolin-1 protein levels", "setting": "[1]", "result": "capable of reducing the levels of said protein"}, {"measurement": "growth of three-dimensional structures (spheroids)", "setting": "[2]", "result": "slows down the growth"}, {"measurement": "migratory capacity", "setting": "[3]", "result": "significant decreases the migratory and invasive capacity"}, {"measurement": "proliferation indices", "setting": "[4]", "result": "significantly lower"}, {"measurement": "invasive capacity", "setting": "[5]; RVX-208 30 μm 72 hours then 15 μM, DLD1 cells", "result": "significant decreases the migratory and invasive capacity"}, {"measurement": "effectiveness of treatment in terms of a decrease in cell invasion capacities", "setting": "[5]; Rvx-208 with ApoA1 silenced by shApoA1, control cells", "result": "reduces the effectiveness of treatment"}]}
